Active and inactive are the calls of the source.
Key:
Major prion protein = Major prion protein (Homo sapiens, UniProt P04156); format: functional, cell-based
[1] = target: Glucose-6-phosphate 1-dehydrogenase (Homo sapiens, UniProt P11413); assay: human G6PD enzyme inhibitors, dose response, selectivity assay for P. falciparum G6PD inhibitor project, biochemical, fluorescence (AID 504792); format: functional
[2] = target: T1, Replicative DNA helicase DnaB (Mycobacterium tuberculosis, UniProt P9WMR3); assay: DnaB intein splicing inhibitors, dose response, biochemical, cell-free fluorescence (AID 449749); format: functional
T1 sequence (P9WMR3 whole entry): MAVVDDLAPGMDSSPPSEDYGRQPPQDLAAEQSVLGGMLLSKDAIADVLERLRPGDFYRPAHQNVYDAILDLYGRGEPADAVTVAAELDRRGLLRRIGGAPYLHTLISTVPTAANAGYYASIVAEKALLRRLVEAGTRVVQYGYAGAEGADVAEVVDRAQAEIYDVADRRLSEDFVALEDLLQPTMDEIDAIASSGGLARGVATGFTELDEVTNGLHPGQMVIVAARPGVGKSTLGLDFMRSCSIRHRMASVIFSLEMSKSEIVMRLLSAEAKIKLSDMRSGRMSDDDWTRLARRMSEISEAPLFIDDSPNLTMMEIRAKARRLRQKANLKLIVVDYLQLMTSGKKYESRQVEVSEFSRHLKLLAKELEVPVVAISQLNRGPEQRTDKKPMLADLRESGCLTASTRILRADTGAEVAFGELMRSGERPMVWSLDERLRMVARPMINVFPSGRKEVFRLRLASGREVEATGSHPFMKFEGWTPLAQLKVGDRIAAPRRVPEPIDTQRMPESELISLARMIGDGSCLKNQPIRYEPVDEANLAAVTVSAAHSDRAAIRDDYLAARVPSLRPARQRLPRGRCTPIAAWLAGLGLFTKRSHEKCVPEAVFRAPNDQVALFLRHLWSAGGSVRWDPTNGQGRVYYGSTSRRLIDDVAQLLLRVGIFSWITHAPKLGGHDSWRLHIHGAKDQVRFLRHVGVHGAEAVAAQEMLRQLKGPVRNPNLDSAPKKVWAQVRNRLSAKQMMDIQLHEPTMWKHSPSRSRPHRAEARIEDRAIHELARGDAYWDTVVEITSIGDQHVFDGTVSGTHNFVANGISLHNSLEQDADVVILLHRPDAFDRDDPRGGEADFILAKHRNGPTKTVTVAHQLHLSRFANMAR

Protein RecA = target: T2, Protein RecA (Mycobacterium tuberculosis, UniProt P9WHJ3); assay: Fluorescence Cell-Free Homogeneous Dose Retest to Identify Inhibitors of RecA-Intein Splicing Activity. [Related pubchem assays (depositor defined):AID2097, AID2223, AID489010, AID492950]; format: functional
T2 sequence (P9WHJ3 whole entry): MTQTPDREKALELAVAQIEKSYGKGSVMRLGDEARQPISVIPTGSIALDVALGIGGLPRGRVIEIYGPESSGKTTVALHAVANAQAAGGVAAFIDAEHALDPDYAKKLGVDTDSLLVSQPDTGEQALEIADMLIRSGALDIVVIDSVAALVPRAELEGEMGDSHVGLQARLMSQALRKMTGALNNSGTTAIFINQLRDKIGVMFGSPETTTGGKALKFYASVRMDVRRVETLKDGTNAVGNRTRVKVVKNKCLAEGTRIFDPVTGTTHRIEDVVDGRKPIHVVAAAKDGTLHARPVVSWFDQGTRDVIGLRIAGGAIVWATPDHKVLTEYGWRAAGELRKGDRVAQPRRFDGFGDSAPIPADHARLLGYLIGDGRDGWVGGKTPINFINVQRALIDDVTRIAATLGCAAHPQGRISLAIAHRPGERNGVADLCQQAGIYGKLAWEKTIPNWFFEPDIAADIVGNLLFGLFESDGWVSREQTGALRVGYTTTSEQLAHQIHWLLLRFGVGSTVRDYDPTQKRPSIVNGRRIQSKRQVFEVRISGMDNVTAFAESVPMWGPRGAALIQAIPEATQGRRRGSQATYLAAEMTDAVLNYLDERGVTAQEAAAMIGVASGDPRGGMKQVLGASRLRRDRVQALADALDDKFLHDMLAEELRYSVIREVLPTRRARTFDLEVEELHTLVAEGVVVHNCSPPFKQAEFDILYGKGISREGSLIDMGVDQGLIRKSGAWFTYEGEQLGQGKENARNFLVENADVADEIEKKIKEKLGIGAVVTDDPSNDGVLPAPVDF

[3] = target: DNA dC->dU-editing enzyme APOBEC-3A (Homo sapiens, UniProt P31941); assay: Dose Response confirmation of small molecule APOBEC3A DNA Deaminase Inhibitors via a fluorescence-based single-stranded DNA deaminase assay. [Related pubchem assays (depositor defined):AID493011, AID493024]; format: functional
[4] = target: DNA dC->dU-editing enzyme APOBEC-3G (Homo sapiens, UniProt Q9HC16); format: functional;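 also: Dose-response counterscreen measuring inhibition of APOBEC3G DNA deaminase activity, run while confirming APOBEC3A inhibitors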
[5] = NIH-3T3 fibroblast cytotoxicity, dose response, cytotoxicity control, cell-based, fluorescence, Alamar Blue, secondary assay (AID 2327); format: functional;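 also: NIH-3T3 mouse fibroblasts cultured with fluconazole at 8 µg/mL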
[6] = C. albicans growth with fluconazole, confirmation, fluorescence, retest (AID 2467); format: functional, cell-based
[7] = target: Induced myeloid leukemia cell differentiation protein Mcl-1 (Homo sapiens, UniProt Q07820); format: functional
[8] = target: T3, Mannose-6-phosphate isomerase (Homo sapiens, UniProt P34949); assay: human PMI inhibitors, high substrate, primary screen, biochemical, fluorescence intensity, high mannose 6-phosphate (AID 1220)
T3 sequence (P34949 whole entry): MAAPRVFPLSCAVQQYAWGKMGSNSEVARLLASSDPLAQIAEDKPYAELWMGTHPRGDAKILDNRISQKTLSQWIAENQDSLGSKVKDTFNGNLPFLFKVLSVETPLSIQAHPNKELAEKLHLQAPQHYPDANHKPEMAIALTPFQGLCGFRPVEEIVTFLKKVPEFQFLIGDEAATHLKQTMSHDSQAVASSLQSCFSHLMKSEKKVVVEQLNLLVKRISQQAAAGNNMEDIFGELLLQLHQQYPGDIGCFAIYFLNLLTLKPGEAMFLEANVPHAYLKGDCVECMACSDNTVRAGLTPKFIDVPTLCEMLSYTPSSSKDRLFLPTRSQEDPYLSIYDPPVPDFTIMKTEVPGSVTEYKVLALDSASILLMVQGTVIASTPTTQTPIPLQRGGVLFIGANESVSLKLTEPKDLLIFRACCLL

[9] = target: T4, Apoptotic protease-activating factor 1 (Homo sapiens, UniProt O14727); format: functional
T4 sequence (O14727 whole entry): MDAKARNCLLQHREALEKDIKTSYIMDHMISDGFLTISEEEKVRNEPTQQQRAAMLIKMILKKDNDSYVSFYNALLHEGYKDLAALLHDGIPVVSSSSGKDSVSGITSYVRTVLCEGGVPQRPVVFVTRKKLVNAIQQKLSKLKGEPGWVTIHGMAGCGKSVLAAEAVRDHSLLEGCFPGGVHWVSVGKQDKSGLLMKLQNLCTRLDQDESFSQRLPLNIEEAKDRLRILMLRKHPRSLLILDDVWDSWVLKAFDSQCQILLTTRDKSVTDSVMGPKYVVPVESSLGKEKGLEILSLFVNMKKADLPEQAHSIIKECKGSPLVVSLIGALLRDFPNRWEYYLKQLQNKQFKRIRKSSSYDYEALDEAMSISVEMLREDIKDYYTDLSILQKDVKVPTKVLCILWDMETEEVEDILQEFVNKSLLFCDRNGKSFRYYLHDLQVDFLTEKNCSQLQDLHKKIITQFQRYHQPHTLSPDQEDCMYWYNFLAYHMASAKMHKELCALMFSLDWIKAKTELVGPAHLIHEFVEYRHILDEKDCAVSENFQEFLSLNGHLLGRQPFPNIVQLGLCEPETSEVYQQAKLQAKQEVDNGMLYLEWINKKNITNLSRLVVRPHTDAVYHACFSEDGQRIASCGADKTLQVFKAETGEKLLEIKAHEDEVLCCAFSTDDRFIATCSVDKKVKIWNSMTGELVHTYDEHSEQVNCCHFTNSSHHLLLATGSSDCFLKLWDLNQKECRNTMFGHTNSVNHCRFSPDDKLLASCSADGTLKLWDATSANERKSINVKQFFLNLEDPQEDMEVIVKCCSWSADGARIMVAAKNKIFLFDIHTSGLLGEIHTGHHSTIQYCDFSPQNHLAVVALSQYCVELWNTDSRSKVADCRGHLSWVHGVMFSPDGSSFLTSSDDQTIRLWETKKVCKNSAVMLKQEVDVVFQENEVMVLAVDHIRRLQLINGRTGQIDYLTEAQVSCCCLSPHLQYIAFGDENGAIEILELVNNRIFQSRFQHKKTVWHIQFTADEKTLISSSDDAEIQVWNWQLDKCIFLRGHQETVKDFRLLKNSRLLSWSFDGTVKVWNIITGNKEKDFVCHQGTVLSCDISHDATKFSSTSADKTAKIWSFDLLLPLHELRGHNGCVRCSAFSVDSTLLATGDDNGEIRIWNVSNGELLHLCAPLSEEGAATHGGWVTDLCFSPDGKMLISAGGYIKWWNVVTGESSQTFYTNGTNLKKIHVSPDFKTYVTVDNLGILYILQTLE

Genome polyprotein = Genome polyprotein (dengue virus type 2, UniProt P29990); assay: Dengue-2 NS5 methyltransferase inhibitors, primary screen, biochemical, confirmation dose response (AID 588689); format: functional
[10] = ZM109 Env clade C HIV-1 fusion inhibitors, dose response, HeLa effector, CEM target cells, luciferase, cherry-pick (AID 652058); format: functional, cell-based
[11] = inhibitors of clade B AD8 Env fusion, dose response, cell-based, cherry-pick (AID 652062); format: functional;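 also: luciferase signal from cell-cell fusion driven by HIV-1 clade B AD8 Env; potency is for inhibitors of fusion seen as a drop in luminescence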
[12] = inhibitors of HIV Env-driven cell fusion, dose response, cherry-pick (AID 652057); format: functional, cell-based
Large T antigen = Large T antigen (Simian virus 40, UniProt P03070); format: functional, Betapolyomavirus macacae;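 also: Confirmatory-stage PubChem screen for compounds that inhibit SV40 T antigen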
Vero = Vero cell cytotoxicity, cytotoxicity control for flavivirus capping enzyme inhibitors (AID 588742); format: functional; conditions: Chlorocebus sabaeus
[13] = A549 cell cytotoxicity, dose response, cytotoxicity control, plate reader, cherry-pick, antagonist series (AID 743412); format: functional, cell-based
[14] = HepG2 cell cytotoxicity, dose response, cytotoxicity control, plate reader, cherry-pick, antagonist series (AID 743416); format: functional, cell-based
[15] = LGR2 antagonists, dose response, cell-based, HEK293, CRE-luciferase reporter, cherry pick, set 2 (AID 743343); format: functional;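 also: transfected cells were stimulated with diluted bursicon conditioned medium after compound addition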
[16] = target: T5, Carboxy-terminal domain RNA polymerase II polypeptide A small phosphatase 1 (Homo sapiens, UniProt Q9GZU7); assay: inhibitors of CTDSP1, concentration-response testing, biochemical assay, absorbance-based, actives from ultra-high-throughput screening (AID 540297); format: functional
T5 sequence (Q9GZU7 whole entry): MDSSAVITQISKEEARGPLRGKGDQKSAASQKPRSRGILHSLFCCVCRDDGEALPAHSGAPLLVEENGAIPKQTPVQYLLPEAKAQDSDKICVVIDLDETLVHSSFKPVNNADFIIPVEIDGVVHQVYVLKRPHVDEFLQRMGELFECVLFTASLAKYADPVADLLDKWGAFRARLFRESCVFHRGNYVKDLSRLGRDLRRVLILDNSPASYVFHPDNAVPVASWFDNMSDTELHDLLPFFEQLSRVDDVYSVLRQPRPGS

Genome polyprotein, sequence (P29990 2492-3391 limits assumed): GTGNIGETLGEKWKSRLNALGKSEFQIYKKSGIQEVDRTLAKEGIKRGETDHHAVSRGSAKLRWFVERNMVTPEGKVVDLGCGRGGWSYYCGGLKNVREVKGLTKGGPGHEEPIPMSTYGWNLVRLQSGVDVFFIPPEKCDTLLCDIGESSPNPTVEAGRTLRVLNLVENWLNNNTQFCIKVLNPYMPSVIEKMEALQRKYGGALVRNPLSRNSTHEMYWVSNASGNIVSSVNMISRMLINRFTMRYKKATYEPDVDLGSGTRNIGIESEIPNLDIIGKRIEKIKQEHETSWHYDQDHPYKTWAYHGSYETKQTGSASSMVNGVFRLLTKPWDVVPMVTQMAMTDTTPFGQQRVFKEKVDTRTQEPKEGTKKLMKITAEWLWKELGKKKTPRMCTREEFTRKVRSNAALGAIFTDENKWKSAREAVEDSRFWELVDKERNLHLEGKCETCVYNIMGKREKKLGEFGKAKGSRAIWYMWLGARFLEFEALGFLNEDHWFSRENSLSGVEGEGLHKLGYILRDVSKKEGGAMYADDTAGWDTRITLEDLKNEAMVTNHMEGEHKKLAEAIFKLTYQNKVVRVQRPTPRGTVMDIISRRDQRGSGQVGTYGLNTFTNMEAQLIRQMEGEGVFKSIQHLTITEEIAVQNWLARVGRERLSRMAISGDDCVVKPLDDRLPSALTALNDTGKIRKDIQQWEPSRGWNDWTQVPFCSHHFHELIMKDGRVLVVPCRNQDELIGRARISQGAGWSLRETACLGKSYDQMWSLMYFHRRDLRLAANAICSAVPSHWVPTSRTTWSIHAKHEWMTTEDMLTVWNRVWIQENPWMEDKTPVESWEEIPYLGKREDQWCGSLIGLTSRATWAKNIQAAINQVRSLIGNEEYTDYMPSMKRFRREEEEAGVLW
Glucose-6-phosphate 1-dehydrogenase, sequence (P11413 whole entry): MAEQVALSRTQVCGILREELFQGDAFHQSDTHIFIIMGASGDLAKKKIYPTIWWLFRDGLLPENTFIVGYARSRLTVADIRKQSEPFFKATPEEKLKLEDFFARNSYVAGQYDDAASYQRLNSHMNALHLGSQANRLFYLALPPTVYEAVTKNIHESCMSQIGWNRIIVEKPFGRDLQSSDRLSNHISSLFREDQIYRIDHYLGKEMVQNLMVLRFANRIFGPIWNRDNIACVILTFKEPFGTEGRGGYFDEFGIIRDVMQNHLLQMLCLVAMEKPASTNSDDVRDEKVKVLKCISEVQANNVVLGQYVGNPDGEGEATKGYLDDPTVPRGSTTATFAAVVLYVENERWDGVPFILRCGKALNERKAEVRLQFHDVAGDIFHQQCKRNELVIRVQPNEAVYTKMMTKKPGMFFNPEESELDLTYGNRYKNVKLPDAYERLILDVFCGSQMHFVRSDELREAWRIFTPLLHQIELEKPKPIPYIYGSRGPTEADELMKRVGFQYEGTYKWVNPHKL
DNA dC->dU-editing enzyme APOBEC-3G, sequence (Q9HC16 whole entry): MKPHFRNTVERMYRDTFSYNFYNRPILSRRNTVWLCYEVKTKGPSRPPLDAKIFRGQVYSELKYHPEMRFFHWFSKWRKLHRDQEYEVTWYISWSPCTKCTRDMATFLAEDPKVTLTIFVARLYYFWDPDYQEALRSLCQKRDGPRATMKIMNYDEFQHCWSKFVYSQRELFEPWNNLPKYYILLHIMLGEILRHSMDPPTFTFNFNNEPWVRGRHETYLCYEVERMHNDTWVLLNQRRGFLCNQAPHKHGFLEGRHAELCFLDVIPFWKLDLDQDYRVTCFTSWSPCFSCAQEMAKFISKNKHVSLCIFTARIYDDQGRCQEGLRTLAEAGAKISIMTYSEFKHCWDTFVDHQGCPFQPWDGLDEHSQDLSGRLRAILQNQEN
DNA dC->dU-editing enzyme APOBEC-3A, sequence (P31941 whole entry): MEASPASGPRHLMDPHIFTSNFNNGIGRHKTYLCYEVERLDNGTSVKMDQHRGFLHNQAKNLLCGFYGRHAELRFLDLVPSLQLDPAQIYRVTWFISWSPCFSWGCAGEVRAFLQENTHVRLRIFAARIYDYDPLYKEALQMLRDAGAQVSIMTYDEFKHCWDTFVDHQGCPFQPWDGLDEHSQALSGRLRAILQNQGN
Induced myeloid leukemia cell differentiation protein Mcl-1, sequence (Q07820 whole entry): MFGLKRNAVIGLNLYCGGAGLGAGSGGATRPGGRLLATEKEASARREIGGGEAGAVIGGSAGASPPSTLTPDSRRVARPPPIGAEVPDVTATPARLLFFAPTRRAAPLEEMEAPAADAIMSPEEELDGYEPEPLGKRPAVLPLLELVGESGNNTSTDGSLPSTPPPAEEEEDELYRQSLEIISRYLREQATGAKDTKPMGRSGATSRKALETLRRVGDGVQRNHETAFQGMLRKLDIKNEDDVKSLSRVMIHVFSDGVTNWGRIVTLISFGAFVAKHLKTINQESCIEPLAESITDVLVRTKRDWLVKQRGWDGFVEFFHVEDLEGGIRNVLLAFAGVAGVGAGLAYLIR
Large T antigen, sequence (P03070 whole entry): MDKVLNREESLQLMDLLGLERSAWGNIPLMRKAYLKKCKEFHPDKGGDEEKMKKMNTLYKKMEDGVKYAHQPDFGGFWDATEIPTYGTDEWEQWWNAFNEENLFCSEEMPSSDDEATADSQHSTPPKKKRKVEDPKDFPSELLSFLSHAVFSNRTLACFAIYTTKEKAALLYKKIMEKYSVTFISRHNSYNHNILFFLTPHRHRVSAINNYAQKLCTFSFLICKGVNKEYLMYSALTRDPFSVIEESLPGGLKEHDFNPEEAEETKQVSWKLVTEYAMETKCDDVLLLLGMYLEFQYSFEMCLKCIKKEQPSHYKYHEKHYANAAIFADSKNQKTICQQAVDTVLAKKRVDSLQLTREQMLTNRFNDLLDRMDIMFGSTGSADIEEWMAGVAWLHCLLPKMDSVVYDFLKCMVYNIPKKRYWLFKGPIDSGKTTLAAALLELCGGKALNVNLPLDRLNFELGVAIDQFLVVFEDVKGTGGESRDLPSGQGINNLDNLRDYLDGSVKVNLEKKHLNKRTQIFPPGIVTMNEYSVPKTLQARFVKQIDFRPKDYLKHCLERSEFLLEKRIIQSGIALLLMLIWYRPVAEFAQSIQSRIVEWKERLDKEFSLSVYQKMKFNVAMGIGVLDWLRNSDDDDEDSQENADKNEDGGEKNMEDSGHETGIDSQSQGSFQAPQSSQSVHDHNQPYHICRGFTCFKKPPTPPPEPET

Cc1cnc(NC(=O)c2cc(S(=O)(=O)N(C)C)ccc2N2CCCC2)s1
IC50 (Major prion protein): 2.87 µM (active) | IC50 (cells): > 138 µM (inactive)

Nc1cc(N)c(OCC(F)(F)F)cc1OCC(F)(F)F
IC50 [1]: 32.7 µM (inactive) | AC50 [2]: 7.43 µM (active) | EC50 (Protein RecA): 4.82 µM (active)

CC(=O)Nc1nnc(SCC(=O)NCC2CCCO2)s1 (stereo not drawn)
IC50 [3]: 38.6 µM (active) | IC50 [4]: 22.5 µM (active)

O=[N+]([O-])c1ccc(N/N=C/c2ccc(O)c(O)c2O)c(S(=O)(=O)N2CCOCC2)c1
EC50 [5]: 24.9 µM (active) | EC50 [6]: > 38 µM (not active) | IC50 [7]: 2.98 µM (active) | IC50 [8]: > 50 µM (not active) | IC50 [1]: 55.6 µM (inactive) | IC50 [9]: 21.4 µM (active) | IC50 (Genome polyprotein): 4.6 µM (active)

CCOC(=O)COc1cc(Br)c(/C=N/Nc2ccccc2)cc1OC
IC50 (Major prion protein): 16.4 µM (inactive) | IC50 (cells): > 138 µM (inactive)

O=C1C=C(O)CC(c2ccco2)C1 (stereo not drawn)
IC50 [3]: 14 µM (active) | IC50 [4]: 37.5 µM (active)

c1ccc2c(c1)OCC(CNc1[nH]cnc3ncnc1-3)O2 (stereo not drawn)
AC50 [10]: 7.15 µM (active) | AC50 [11]: 2.64 µM (active)

C[C@H](CO)N1C[C@H](C)[C@H](CN(C)Cc2cccnc2)OCc2ccccc2-c2c(n(C)c3ccccc23)C1=O
AC50 [12]: 15.6 µM (active) | AC50 [10]: 1.21 µM (active) | AC50 [11]: 0.805 µM (active)

CCCCOC(=O)Nc1ccc(N(C)C)cc1
IC50 (Large T antigen): 5.43 µM (active) | IC50 [7]: 0.473 µM (not active)

Cc1ccc(S(=O)(=O)N2[C@@H](c3cccc(Cl)c3)C(C(=O)O)=CC[C@H]2c2ccc(Cl)c(Cl)c2)cc1
CC50 (Vero): > 40 µM (active) | IC50 (Genome polyprotein): 57.9 µM (active)

O=C(O)C1=CC[C@@H](c2ccc(Cl)cc2)N(S(=O)(=O)c2ccc(Cl)cc2)[C@H]1c1ccc(Br)cc1
CC50 (Vero): > 40 µM (active) | IC50 (Genome polyprotein): 36.5 µM (active)

CCOc1ccc(C(=O)C2=C(O)C(=O)N(c3ccccn3)C2c2ccc(F)cc2)c(C)c1 (stereo not drawn)
IC50 (Major prion protein): 13 µM (inactive) | IC50 (cells): > 138 µM (inactive)

O=C(COc1ccccc1F)OCC(=O)c1ccc([N+](=O)[O-])cc1
IC50 [1]: > 80 µM (inactive)

COc1ccc(C(=O)CC(Sc2ccccc2N)c2ccc(OC)cc2)cc1 (stereo not drawn)
AC50 [13]: 48.4 µM (active) | AC50 [14]: > 52 µM (inactive) | AC50 [15]: 28.7 µM (active)

CC[N+](CC)(CC)CCOc1ccc(/C=C/c2ccccc2)cc1 [STILONIUM IODIDE]
IC50 [3]: 2.33 µM (active) | IC50 [4]: 2.57 µM (active) | IC50 [16]: 20.2 µM (active)

O=C(CSc1n[nH]c(-c2ccncc2)n1)Nc1ccc(Cl)c(Cl)c1
IC50 [3]: 8.81 µM (active) | IC50 [4]: 9.18 µM (active)

COc1ccc(NC(=O)Nc2ccc3c(c2)C(=O)N([C@H](C)CO)C[C@H](C)[C@H](CN(C)CC2CC2)OCCCC[C@H](C)O3)cc1
AC50 [12]: 25.9 µM (active) | AC50 [10]: 26.5 µM (active) | AC50 [11]: 23.5 µM (active)
